Measurements as given in patent US10617736B2, “Method for modulating insulin-independent glucose transport using teneurin C-terminal associated peptide (TCAP)” (priority 2014, dated 2020).
Ends that are not written are not given here.

Legend:
[1] = biological target: T1, latrophilin-1 (Mus musculus, UniProt Q80TR1); experiment: Co-localization of FITC-TCAP-1 with latrophilin-1 in Hypo E-38 cells; format: binding
T1 construct: only latrophilin 1 and 3 could be detected in this cell line or in the intact mouse brain; endogenous in cells; host or cells: Hypo E-38 (mHypoE-38) immortalized embryonic mouse hypothalamic neurons
T1 sequence (Q80TR1 29-1466): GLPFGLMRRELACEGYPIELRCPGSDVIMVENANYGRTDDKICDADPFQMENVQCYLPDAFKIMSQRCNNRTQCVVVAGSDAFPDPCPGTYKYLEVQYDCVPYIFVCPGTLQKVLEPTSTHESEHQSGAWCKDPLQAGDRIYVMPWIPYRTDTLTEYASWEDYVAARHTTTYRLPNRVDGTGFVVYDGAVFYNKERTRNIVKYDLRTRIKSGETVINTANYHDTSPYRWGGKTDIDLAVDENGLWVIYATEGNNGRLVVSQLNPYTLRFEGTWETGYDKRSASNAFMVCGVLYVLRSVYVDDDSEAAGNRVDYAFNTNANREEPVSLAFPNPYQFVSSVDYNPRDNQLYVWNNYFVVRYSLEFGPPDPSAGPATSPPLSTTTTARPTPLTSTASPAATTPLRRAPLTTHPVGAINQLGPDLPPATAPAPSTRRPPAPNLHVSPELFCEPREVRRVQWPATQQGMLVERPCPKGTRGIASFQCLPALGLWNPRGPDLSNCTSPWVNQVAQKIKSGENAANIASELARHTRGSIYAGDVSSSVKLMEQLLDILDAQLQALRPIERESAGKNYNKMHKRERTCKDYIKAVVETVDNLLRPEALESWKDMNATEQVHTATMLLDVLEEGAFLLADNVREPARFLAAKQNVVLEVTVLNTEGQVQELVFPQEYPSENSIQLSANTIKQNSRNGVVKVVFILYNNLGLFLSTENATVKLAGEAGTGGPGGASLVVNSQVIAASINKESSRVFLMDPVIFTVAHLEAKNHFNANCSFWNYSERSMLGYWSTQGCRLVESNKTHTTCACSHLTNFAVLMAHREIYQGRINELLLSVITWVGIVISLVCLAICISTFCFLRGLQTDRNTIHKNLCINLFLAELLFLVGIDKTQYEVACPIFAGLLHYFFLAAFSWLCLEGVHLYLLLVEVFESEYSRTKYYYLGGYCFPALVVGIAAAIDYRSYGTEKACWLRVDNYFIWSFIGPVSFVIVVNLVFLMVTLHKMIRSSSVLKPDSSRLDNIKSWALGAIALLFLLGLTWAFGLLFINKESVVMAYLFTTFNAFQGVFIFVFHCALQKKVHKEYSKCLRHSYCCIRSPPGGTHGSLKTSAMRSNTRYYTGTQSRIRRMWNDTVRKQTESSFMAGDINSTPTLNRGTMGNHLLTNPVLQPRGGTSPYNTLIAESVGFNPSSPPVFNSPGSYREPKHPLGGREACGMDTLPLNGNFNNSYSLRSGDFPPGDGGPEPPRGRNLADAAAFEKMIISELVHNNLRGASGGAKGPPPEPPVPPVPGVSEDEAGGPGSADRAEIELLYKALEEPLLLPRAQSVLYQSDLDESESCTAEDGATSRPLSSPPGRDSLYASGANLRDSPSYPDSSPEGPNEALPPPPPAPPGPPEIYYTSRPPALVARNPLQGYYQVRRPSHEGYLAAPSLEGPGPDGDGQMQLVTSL
Protocol: (§1) The [K8]-TCAP-1 peptide was labeled with fluorescein isothiocyanate (FITC) according to the EZ-label TITC Protein labeling kit (Pierce Biotechnology, Rockford Ill.). FITC was dissolved in dimethylformamide, mixed with the [K8]-TCAP-1 at a 24:1 excess molar ratio and incubated for 2 h at RT in the dark to allow for the conjugation of the primary amine of the lysine group. A dextran column was used to remove the unconjugated FITC and the absorbance of each fraction was measured at 280 nm to determine the elution point of the conjugated peptide in phosphate buffered saline (PBS; 0.1M phosphate, 0.15 M NaCl, pH7.2). The four fractions with the highest protein absorbance readings were combined and sterilize-filtered using an Acrodisc Syringe 0.2 μm Supor low protein binding filter (Pall Life Sciences, Ann Arbor, Mich.). […] The amount of the FITC required to be injected as a control was determined by applying different PBS-diluted preparations of FITC on a nitrocelluose membrate. The level of fluorescence was directly compared to that of a spot of the FITC-[K8]-TCAP-1 conjugate to be administered and that dilution was used for the administration after sterilize-filtration indicated above. Fluorescence was measured using an EP Chemi II Darkroom system (UVP, Upland, Calif.) with the sequential integration function of LabWorks Image acquisition and analysis software. […]

[2] = test system: skeletal mouse muscle fibers; experiment: FITC-TCAP-1 binding assay on skeletal mouse muscle sections; details: fluorescence, co-staining with β-DG
Protocol: as §1

[3] = test system: mHypoE-38 neurons; experiment: 3H-2-deoxyglucose uptake in mHypoE-38 hypothalamic neurons; format: cell-based, mouse; details: Hypo-E38 cells, potassium-free media (FIG. 11F, G)
[4] = test system: mHypoE-38 neurons; experiment: as above; format: cell-based, mouse
Protocol: The effect of TCAP-1 on glucose uptake in brain cells was examined in immortalized […] hypothalamic cells. Immortalized mHypoE-38 hypothalamic embryonic mouse neurons (gift from Dr. Denise Belsham, University of Toronto) were grown in Dulbecco's Modified Eagle Medium (DMEM) containing 4500 mg/L D-glucose, L-glutamine, and 25 mM HEPES buffer, without sodium pyruvate or phenol red (Gibco, Cat. No. 21063029), supplemented with 5% heat-inactivated fetal bovine serum (FBS), 100 U/ml penicillin and 100 μg/ml streptomycin. Cells were maintained at 60-70% confluency at 37° C. in a humidified CO2 incubator. To passage, cells were washed once in sterile PBS, trypsinized and seeded at a density of 100,000 cells per 3.5 cm plate and allowed to grow for 2-3 days. 24 hours prior to experimentation, medium was changed. mHypoE-38 hypothalamic cells were grown in 6-well tissue culture dishes (Corning Incorporated, Cat. No. 3516) at a seeding density of200 000 cells/9.5 cm^2 well in a 37° C. normoxic incubator. Cultures were grown for 36 hours to 85% confluence prior to experimentation. At day 3 post-plating, cells were washed twice with Locke's buffer (154 mM NaCl, 5.6 mM KCl, 2.3 mM CaCl2, 3.6 mM NaHCO3, 5 mM HEPES) without serum and glucose. The culture was incubated in the Locke's buffer for 1 hour at 37° C. followed by exposure to 100 nM insulin, 100 nM TCAP-1, 100 nM SC-TCAP-1, or saline. KCl (40 mM) and […] (0.5 μCi/ml) were added to culture 5 minutes before termination of treatment exposure. Uptake of ^3H-2-deoxyglucose was stopped immediately after 5 minutes with three washes of ice-cold 0.9% NaCl solution. Parallel experiments with 5 μM of cytochalasin B were performed to ensure that glucose uptake was of transporter-inhibitable transport. The cells were digested with 1 ml of 0.05 N NaOH at 0, 15, 30, 45, 60, 90 and 120 minutes after treatment. Cell lysates were used for determination of radioactivity by a beta liquid scintillation counter. Experiments were repeated three times with 3 wells pear condition per replication. […] hypothalamic cells were cultured as above and treated with 100 nM insulin, 100 nM TCAP-1 or saline, exposed to 5.6 mM or 40 mM KCl and 0.5 μCi/well 3H-2-deoxy glucose, and subsequently lysed with 50 mM NaOH. Radioactivity in cell lysates was counted using a liquid scintillation counter.

[5] = test system: C2C12 myocytes; experiment: 3H-2-deoxyglucose uptake in C2C12 myocytes; format: cell-based, mouse; details: 100 nM
Protocol: The effect of TCAP-1 on glucose uptake in muscle cells was examined in a C2C12 mouse myocyte cell line. C2C12 myocytes were cultured in Dulbecco's Modified Eagle Medium (DMEM) containing 4500 mg/L D-glucose, L-glutamine, and 25 mM HEPES buffer, without sodium pyruvate or phenol red (Gibco, Cat. No. 21063029), supplemented with 20% heat-inactivated fetal bovine serum (FBS), 100 U/ml penicillin and 100 μg/ml streptomycin. Cells were maintained at 80% confluency at 37° C. in a humidified CO2 incubator. To initiate differentiation, myocytes were further cultured in DMEM supplemented with 10% heat-inactivated horse serum (HS), transferrin, 100 U/ml penicillin and 100 μg/ml streptomycin. Myocytes were allowed to differentiate into multi-nucleated myotubes for 5 days before experimentation. 24 hours prior to experimentation, medium was changed. At day 5 of differentiation, cells were deprived of serum and incubated in Minimal Essential Medium containing 1000 mg/L D-glucose, L-glutamine, without nucleosides (Gibco, Cat. No. 12561049) for 5 hours at 37° C. prior to incubation with insulin, TCAP-1, or saline. Cells were washed twice in glucose-free HEPES-buffered solution (HBS), containing 140 mM NaCl, 20 mM HEPES, 5 mM KCl, 2.5 mM MgSO4 and 1 mM CaCl2, followed by determinations of transport of 3H-2-deoxyglucose for 10 minutes at 0.5 μCi/ml at room temperature. Uptake of 3H-2-deoxyglucose was stopped immediately after 10 minutes with three washes of ice-cold 0.9% NaCl solution. Parallel experiments with 5 μM of cytochalasin B were done to ensure that glucose uptake was of transporter-inhibitable transport The cells were digested with 1 ml of 0.05 N NaOH. Cell lysates were used for determination of radioactivity by a beta liquid scintillation counter. Experiments were repeated three times with 3 wells per condition per replication. […] Cell lysates were used for determination of radioactivity by a beta liquid scintillation counter. […]

Substance	co-localization with latrophilin-1 immunoreactivity [1]	binding to 5 μm sections of mouse gastrocnemius muscle [2]	3HDG uptake in potassium-free media [3]	3H-2-deoxyglucose uptake ([4]; 100 nM, 5.6 mM KCl (low KCl)) [%]	3H-2-deoxyglucose uptake ([4]; 100 nM, 40 mM KCl exposure) [%]	3H-2-deoxyglucose uptake value relative to baseline ([4]; 100 nM, 40 mM KCl, 45 minutes) [%]	3HDG uptake in whole cells over time ([4]; Hypo-E38 cells (FIG. 11C-E))	3H-2-deoxyglucose uptake ([4]; cells pretreated with MEK inhibitor (U0126) for 1 hour, 40 mM KCl)	3H-2-deoxyglucose uptake ([4]; non-MEK-inhibited cells, 40 mM KCl)	3H-2-deoxyglucose uptake ([5]; 90 minutes) [%]	3H-2-deoxyglucose uptake ([5]; after 30 minutes) [%]
FITC-TCAP-1: [K8]-TCAP-1 peptide labeled with fluorescein isothiocyanate (FITC) (QQLLGTGKVQGYDGYFVLSVEQYLELSDSANNIHFMRQSEI; ends and bridges not checked; also: FITC label, attachment site not given here)	strong co-localization	preferentially binds to the membranes of individual skeletal mouse muscle fibers	–	–	–	–	–	–	–	–	–
insulin	–	–	decreased insulin-dependent glucose uptake to baseline levels	91.423±5.226	288.572±24.527	253±21.38	uptake in 3HDGlucose within 30 min and remained high until after 60 min	108.069±13.671	162.846±1.813	332.321±87.296	284.520±47.129
